Assay results published in paper PMC10447463, “Data-mining unveils structure–property–activity correlation of viral infectivity enhancing self-assembling peptides” (Nature Communications, 2023).
Read-outs that look alike come from different tables or passages of the source.

What was measured:
[1] = Turbidity, derived count rate of scattered light; format: physicochemical; details: for Count Rate / kcps: derived count rate of scattered light at 633 nm, 173°, from zeta-potential measurement, 0.1 mg/mL in 1 mM KCl after 1 d at 1 mg/mL in PBS, turbidity / microscopic aggregation, mean of triplicate
Protocol: 4 µL of 1 mg/mL peptide fibrils solution is added to a 20 µL, 50 µM ThT–solution in PBS. The mixture is incubated for 15 min at RT to allow binding of ThT dye with β–sheet rich structures. For reference PBS (4 µL) was added instead of peptide fibril solution. The samples were placed in black UV Star® 384 microliter well–plates (Greiner bio–one). Fluorescence spectra were recorded on an Infinite® M1000 PRO microplate reader (Tecan) at λem = 488 nm upon excitation at λex = 440 nm with 10 nm bandwidths and multiple reads per well (3×3). Measurements were repeated in triplicates and averaged with standard deviation. […] Zeta-Potential. For the determination of the surface charge of aggregated peptides zeta-potential measurements were conducted with a Zetasizer Nano ZS, Malvern Instruments. Unless stated otherwise the peptides were dissolved from DMSO (10 mg/mL) in PBS (pH 7.4) to concentration of 1 mg/mL and incubated for 1d at RT. Just before the measurement the 60 µL of the peptides were further diluted in 600 µL KCl (aq, 1 mM) in a 1 mL disposable folded capillary cells (DTS–1060, Zetasizer Nano series, Malvern). The zeta potential of the peptides was derived from the electrophoretic mobility based on the Smoluchowski formula. All measurements were averaged over two individually performed experiments and conducted in triplicates for each sample. Aggregate analysis. […] Furthermore, fluorescence microscopy was conducted by staining 1 µL preformed fibrils (1 mg/mL) with 9 µL ThT (50 µM). Brightfield microscopy was performed simultaneously to evaluate aggregation also for non ThT-active fibrils. The measurements were performed on a Leica DMi8 microscope with 10x air objective and equipped with a Leica MC170 HD camera with a filter setting λem = 527/30 nm upon excitation at λex = 480/40 nm) and processed with the Leica LASX software. To quantify size and number of microscopic aggregation of particles > 10 µm^2 at least 3 independently measured images were analyzed via the 3D object counter analysis tool of ImageJ, v 1.53f51. Sum–frequency generation. The SFG experiments were carried out with a femtosecond Ti: Sapphire amplified laser system (Spitfire Ace, Spectra–Physics, 800 nm, 40 fs, 1 kHz) with 5 W output power. We used 2 W to pump an optical parametric amplifier (TOPAS, light conversion) with a non–collinear difference frequency generation stage to generate broadband IR pulses. Another 1 W of the laser output passed through an etalon to generate narrowband visible pulses (10 cm^-1). The incident angles of the visible and IR beams were 36° and 41° with respect to the surface normal, respectively. The visible (13 µJ) and IR (5 µJ) pulses were overlapped spatially and temporally at the sample position. Subsequently, the generated SFG pulse was guided into a spectrograph (Acton SP 300i, Princeton Instruments), and detected with an EMCCD (Newton, Andor Technology). To avoid IR absorption of water vapor, we purged N2 for the measurement. All spectra were collected in the ssp (denoting s-, s- and p-polarized SFG, visible and IR, respectively) polarization combination. The spectra were normalized to the non–resonant signal taken from z–cut quartz after subtracting a background spectrum. […]
ways to determine turbidity of samples, this can be via transmittance and via scattering. Transmittance […]
as it is an easy and fast method.10,11 However, transmittance contributes not only from µm-sized aggregates but also nm-sized aggregates such as distinct fibrils, which makes hard to distinguish between fibril formation and micrometer sized aggregation. Although dynamic light scattering is a frequently applied method for determination of particle size, it cannot be conducted in solutions with anisotropic aggregates in micrometer size range, since the Stokes-Einstein relation is only applicable for homogeneous […] spherical particles.12 Further models describing scattering intensity and […]

[2] = Zeta-potential measurement; format: physicochemical; details: for Zeta-Pot.: zeta potential of peptide assemblies
Outline: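 Peptides from a 10 mg/mL DMSO stock were brought to 1 mg/mL in PBS (pH 7.4) and aged 1 d at RT. Just before reading, they were diluted into 1 mM aqueous KCl, and zeta potential was calculated from electrophoretic mobility with the Smoluchowski formula.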

[3] = format: physicochemical; set-up: key to Fibril / Fibril Formation / TEM 2cat / Fibril: 1 = fibrils present; 0 non-fibrillar structures; details: for Fibril / Fibril Formation: 1 mg/mL, uranyl acetate stain, qualitative
[4] = Turbidity, derived count rate of scattered light; format: physicochemical; details: for Count Rate: derived count rate of scattered light (turbidity); for Log10 Count Rate: turbidity, derived count rate of scattered light, data of Figure 2D
[5] = β-sheet content by ATR-FT-IR; format: physicochemical; details: Fig. S7 panel A; β-sheet content by ATR-FT-IR
Protocol: For ATR FT–IR spectroscopy measurements, 200 µL of the respective 1 mg/mL PNF solution was lyophilized and the resulting powder used for measurement. All spectra were recorded on a Bruker Tensor 27 spectrometer with a diamond crystal as ATR element (PIKE MiracleTM, spectral resolution 2 cm^-1). Every sample was measured with 64 scans. Data were analyzed with OriginLab software and calculation of β–sheet content was conducted according to a previous report. TEM. For TEM measurements 5 µL of PNF fibrils (1 mg/mL) were placed on copper grids coated with carbon and formvar layer (300 mesh, Plano GmbH). After 10 min incubation time, the grids were staining with 4% uranyl acetate solution for 2.5 min and washed with water. Measurements were performed on a Jeol 1400 electron microscope with 120 kV acceleration voltage. CR Assay. For the determination of the amount of peptide monomer converting into nanostructures the amine reactive dye fluorescamine was used analogous to a previous reported protocol. Briefly, 100 µL of the preformed PNF solution was centrifuged in a Vivaspin 500 tube (3 kDa MWCO) to separate fibers from free peptide monomer (16200 x g, 4 °C, 45 min). The filtrate and 100 μL of the non-filtered PNF sample were lyophilized and dissolved in 30 μL DMSO. 10 μL of the filtrate and non-filtered DMSO samples were submitted in a black UV Star® 384 microliter well–plates (Greiner bio–one) and 3 μL of the fluorescamine solution (10 mg/mL, DMSO) was added to measure the fluorescence enhancement. After 20 min of incubation at RT, fluorescence was recorded on an Infinite® M1000 PRO microplate reader (Tecan) at λem = 470 nm upon excitation at λex = 365 nm with 10 nm bandwidths and multiple reads per well (3×3). Measurements were repeated in triplicates and averaged with standard deviation. All values were calculated as n-fold fluorescence enhancement (DMSO only as a reference was set to 1). The conversion rate CR was defined according to the equation Eq. (3).3 CR=100−100×fluorescenceintensityfiltrate/fluorescenceintensityoriginal[%]

[6] = Log10 of derived count rate of scattered light (turbidity)
[7] = log10 of derived count rate of scattered light (turbidity)
[8] = turbidity, Log10 of derived count rate of scattered light, Figure 3A source data
[9] = zeta-potential of peptide, source data of Figure 2C
[10] = zeta-potential of the peptide assemblies, mean, Figure 3A source data
[11] = Fig S10 panel D, fibril category by TEM
[12] = TEM, 1 = fibrils present, 0 = non-fibrillar
[13] = TEM, 1 = fibrils present, 0 = non-fibrillar structures
[14] = category: fibrils present or non-fibrillar
[15] = FigS12 panel A, fibril category by TEM

| Substance | Log10 Count Rate [1, 6] | Count Rate / kcps [1] [kcps] | Log10 Count Rate [1, 7] | Log10 Count Rate [1, 8] | Zeta-Pot. [2] | Zeta-Potential / mV [2, 9] [mV] | Zeta-Potential / mV [2, 10] [mV] | TEM 2cat [3, 11] | Fibril ([3]; Fig S10 panel E) | Fibril / Fibril Formation ([3]; TEM) | Fibril [3, 12] | Fibril [3, 13] | TEM 2cat [3, 14] | Count Rate [4] | Log10 Count Rate [4] | b -sheet / % [5] [%] | TEM 2cat [3, 15] | Fibril ([3]; FigS12 panel B, TEM) |
| --- | --- | --- | --- | --- | --- | --- | --- | --- | --- | --- | --- | --- | --- | --- | --- | --- | --- | --- |
| CEFEFQFNMWQ | 2.27 | 186 | 2.27 | 2.27 | -34.23 | -24.5 | -34.23 | 1 | 1 | 1 | 1 | 1 | 1 | 186.3 | 2.27 | 51.48 |  |  |
| CEIEIQINM | 1.767 | 58 | 1.767 | 1.767 | -15.3 | -22.07 | -15.3 | 1 | 1 | 1 | 1 | 1 |  | 58.43 | 1.767 | 46.31 | 1 | 1 |
| CEIEIQINMWQ | 3.196 | 1570 | 3.196 | 3.196 | -25.8 | -26.07 | -25.8 | 1 | 1 | 1 | 1 | 1 | 1 | 1570 | 3.196 | 49.9 |  |  |
| CKAKAQA | 2.56 | 363 | 2.56 | 2.56 | -8.01 | -5.031 | -8.01 | 0 | 0 | 0 | 0 | 0 |  | 362.7 | 2.56 | 34.73 | 0 | 0 |
